Experiment: gradient 5% acetonitrile 3 min, to 50% in 2 min, to 85% in 15 min, held 3 min, 100 µL/min
Conditions: column: Zorbax Extend-C18 2.1 x 50 mm; eluents: water / acetonitrile, 0.1% formic acid
How it was run: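 Using water and acetonitrile that each contained 0.1% formic acid, mixtures of ~100 pure standards were separated at 100 μL/min on a Zorbax Extend-C18 column (2.1 × 50 mm, 1.8 μm). The HPLC fed a quadrupole time-of-flight mass spectrometer working in positive and negative ionization mode, with dead and dwell volumes of 40 μL and 900 μL. Data were acquired over 3 months. Retention time was read from computationally picked adduct peaks after manual inspection of each.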

For `O=C(NC1CCCC1)C1CCCN(c2nnc3ccc(Cl)cn23)C1` (configuration not stated), the RP-LC retention time was 648 s.
Compound `CN1CCCn2cc(S(=O)(=O)Nc3ccc4c(c3)OCCO4)cc2C1=O` has an RP-LC retention time of 655 s.
Work on `CN(Cc1nc2cc(C(=O)N3CCCC3)ccc2n1C)C(=O)Nc1cccc(Br)c1` yielded an RP-LC retention time of 665 s.
Work on `COc1ccc(Cl)cc1NC(=O)N1CCCC(C)(C(=O)NCc2ccccc2)C1` (configuration not stated) yielded an RP-LC retention time of 998 s.
Compound `CC1CCCCN1S(=O)(=O)c1ccc2nc(N3CCN(c4ccc(F)cc4)CC3)ccc2c1` (configuration not stated) has an RP-LC retention time of 1100 s.
Work on `O=C(N[C@H]1C[C@@H]2C[C@H]1N(S(=O)(=O)c1ccc3c(c1)OCCO3)C2)c1cccs1` yielded an RP-LC retention time of 816 s.
With `Clc1cc2c(nn1)Nc1ccccc1S2` the RP-LC retention time was 892 s.
`CC(C)Oc1ccc(CN2CC(c3nc(-c4ccsc4)nn3C)C2)cc1` gave an RP-LC retention time of 696 s.
For `CCc1cccc(N2C=C(C(=O)OC)S(=O)(=O)c3ccccc32)c1`, the RP-LC retention time was 930 s.
Compound `Cc1cccc(NC(=O)C2CCc3sc(C(=O)N(C)C)cc3C2)c1` (configuration not stated) has an RP-LC retention time of 846 s.
`CCc1nc(N)n(CC(=O)Nc2ccc(OC)cc2)c(=O)c1C` gave an RP-LC retention time of 650 s.
`CCOc1ccc(N2CC(c3nc(-c4ccc(OC)cc4OC)no3)CC2=O)cc1` (configuration not stated) showed an RP-LC retention time of 902 s.
For `Cn1cnc(S(=O)(=O)N2CC(N(Cc3ccccc3)C3CCOCC3)C2)c1`, the RP-LC retention time was 600 s.
`Cc1cc(=O)n2nc(N3CCCC(C(=O)N4CCC(Cc5ccccc5)CC4)C3)sc2n1` (configuration not stated) showed an RP-LC retention time of 726 s.
In the case of `O=C(Cn1nc(C(=O)N2CCCC2)c2ccccc21)N1CCN(Cc2ccc3c(c2)OCO3)CC1`, the RP-LC retention time is reported as 622 s.
`Cc1oc(-c2[nH]ncc2C(=O)N2CCOCC2)cc1S(=O)(=O)Nc1ccc(F)cc1` gave an RP-LC retention time of 669 s.
Work on `O=C1N(c2cccc(F)c2)C(c2ccccc2)C12CCN(Cc1cccc(F)c1O)CC2` (configuration not stated) yielded an RP-LC retention time of 774 s.
`COc1ccc(N2CCN(C(=O)CN3CCN(Cc4cccc(Cl)c4)C3=O)CC2)cc1` showed an RP-LC retention time of 784 s.
In the case of `COc1ccc2nc(NC(=O)Cn3nc(C(=O)N4CCOCC4)c4ccccc43)sc2c1`, the RP-LC retention time is reported as 761 s.
`O=C([C@@H]1C[C@H](F)CN1S(=O)(=O)c1cccc(Cl)c1)N1CCc2ccccc2C1` showed an RP-LC retention time of 927 s.
`O=C(Nc1ccc(-n2cnc(C(=O)N3CCC(Cc4ccccc4)CC3)c2)nc1)C1CC1` gave an RP-LC retention time of 860 s.
With `NC(=O)C1CCN(C(=O)c2ccc3c(c2)CCCN3S(=O)(=O)c2ccc(Cl)cc2)CC1` the RP-LC retention time was 741 s.
With `Cc1ccc(C2CCCN2C(=O)Nc2ccc3c(c2)OCCO3)cc1` (configuration not stated) the RP-LC retention time was 922 s.
`CCCNC(=O)c1ccc2c(c1)CCN2C(C)=O` showed an RP-LC retention time of 635 s.
For `Cc1ccc(CNC(=O)N2CCCC(C)(C(=O)NCc3ccccc3C)C2)cc1` (configuration not stated), the RP-LC retention time was 916 s.
For `CC1CCN(c2cc(-c3noc(C(=O)N4CCN(C5CCCCC5)CC4)n3)ccn2)CC1`, the RP-LC retention time was 647 s.
For `Cc1ccnc(N2CCC(C(=O)N3CCN(C(=O)c4ccco4)CC3)CC2)n1`, the RP-LC retention time was 616 s.
Work on `O=C(NCCc1c[nH]c2ccc(Cl)cc12)c1cc(-c2ccccn2)nc2ccccc12` yielded an RP-LC retention time of 959 s.
Work on `CCN1CCN(c2cc(C)c3cc(NC(=S)NCc4cccs4)ccc3n2)CC1` yielded an RP-LC retention time of 584 s.
Work on `CCOC(=O)c1c(C)oc2nc(C)nc(NCCN(C)Cc3ccccc3)c12` yielded an RP-LC retention time of 701 s.
With `COc1cc(NC(=O)N2CCCC(C)(C(=O)NCc3ccc(C)cc3)C2)cc(OC)c1OC` (configuration not stated) the RP-LC retention time was 811 s.
Work on `COc1ccc(OC)c(S(=O)(=O)N2CCCC(C(=O)NCc3ccccn3)C2)c1` (configuration not stated) yielded an RP-LC retention time of 615 s.
With `Cc1cc(C)cc(NC(=O)N2CCC(N3CCN(Cc4ccccc4)C(=O)C3=O)CC2)c1` the RP-LC retention time was 740 s.
In the case of `Cc1nc(-c2ccc3c(c2)CCN3C(=O)c2cccc(F)c2)cs1`, the RP-LC retention time is reported as 992 s.
`CC(C)CCNC(=O)C1CCN(C(=O)c2cc(-c3ccncc3)n[nH]2)CC1` showed an RP-LC retention time of 591 s.
With `COc1cccc(-c2cc(NCc3ccc4c(c3)OCO4)nc(N)n2)c1` the RP-LC retention time was 768 s.
`Cc1cc(C)c(-c2noc(C)n2)c(NC(=O)C2CCCCC2)n1` showed an RP-LC retention time of 723 s.
With `Cc1cc(S(=O)(=O)N2CC(c3nc(-c4ccccc4)nn3C)C2)ccc1F` the RP-LC retention time was 602 s.
For `O=C(Nc1ccc(-c2nnc3n2CCCC3)cc1)c1cc(C2CC2)[nH]n1`, the RP-LC retention time was 625 s.
`O=C(NC1CCCC1)C1CCCN(c2ccc(=O)n(-c3ccc(F)cc3)n2)C1` (configuration not stated) gave an RP-LC retention time of 763 s.
`CCn1nnc2c(SCC(=O)Nc3cccc(C(F)(F)F)c3)ncnc21` showed an RP-LC retention time of 866 s.
Compound `Cc1scc2nc(C(=O)NC(C)C)nc(N(C)C)c12` has an RP-LC retention time of 581 s.
Compound `O=C(NC1CC1)c1nc(C(=O)N2CCC3(CC2)OCCO3)cs1` has an RP-LC retention time of 649 s.
`CS(=O)(=O)N1CCC(C(=O)Nc2ccc(Cl)cc2)Oc2ccccc21` (configuration not stated) showed an RP-LC retention time of 924 s.
`Cc1ccn2cc(-c3ccc(NC(=O)c4cccc(F)c4)cc3)nc2n1` showed an RP-LC retention time of 647 s.
Work on `CC(C)CC(=O)Nc1ccc2nc(N3CCN(c4ccc(Cl)cc4)CC3)cc(C(=O)O)c2c1` yielded an RP-LC retention time of 746 s.
With `CCOC(=O)c1ccc(NC(=O)c2c(C)oc3nc(C)nc(N4CCCC4)c23)cc1` the RP-LC retention time was 848 s.
`COc1ccc(C)cc1NC(=O)c1cc(C)n2nc(C)cc2n1` showed an RP-LC retention time of 1040 s.
`Cn1c(C2CCN(C(=O)Nc3cc(F)ccc3F)CC2)cc(=O)n2nccc12` showed an RP-LC retention time of 695 s.
Work on `Cc1cccc(-n2c(=O)c3c(cc(C)n3C)n(CC(=O)Nc3ccc(C)c(C)c3)c2=O)c1` yielded an RP-LC retention time of 912 s.
In the case of `COC(=O)c1cccc(C(=O)Nc2ccc(Cl)cc2F)n1`, the RP-LC retention time is reported as 996 s.
Compound `Cc1nc(C)c(C(=O)Nc2nc(-c3ccc(Cl)cc3)cs2)s1` has an RP-LC retention time of 992 s.
`CCOC(=O)c1c(C)c(C(=O)Nc2cccc(C)c2C)c(C)n1C` showed an RP-LC retention time of 882 s.
`O=C(Cn1ccc2ccc(N3CCOCC3)nc21)N1CCN(c2ccccc2)CC1` showed an RP-LC retention time of 879 s.
For `COc1ccc(-n2cc(C(=O)OCC(=O)OC(C)C)c3ccccc3c2=O)cc1`, the RP-LC retention time was 1060 s.
Compound `O=C(Nc1ccc2ncsc2c1)c1cc(Cl)sc1Cl` has an RP-LC retention time of 852 s.
`CCOc1ccccc1NC(=O)Cn1c(=O)n(-c2cccc(C)c2)c(=O)c2c1cc(C)n2C` showed an RP-LC retention time of 943 s.
For `CC(=O)c1cccc(NC(=O)Cn2c(-c3ccc(F)cc3)nc(C)cc2=O)c1`, the RP-LC retention time was 963 s.
`Cc1oc2c(c1C(=O)Nc1ccc(F)c(F)c1)C1=NC(C)(C)CN1C=N2` gave an RP-LC retention time of 655 s.
`CCOC(=O)c1cccc(N2C=C(C(=O)N3CCCC3)S(=O)(=O)c3ccccc32)c1` showed an RP-LC retention time of 802 s.
Work on `CCOC(=O)c1noc2nc(C)nc(NCCc3ccc(Cl)cc3)c12` yielded an RP-LC retention time of 1210 s.
`CC1CCc2nn(CC(=O)Nc3cc(F)ccc3F)cc2C1` (configuration not stated) gave an RP-LC retention time of 983 s.
`CCN1CCN(CCNC(=O)C2CCCN(C(=O)c3[nH]c(C)c(C(=O)OC(C)C)c3C)C2)CC1` (configuration not stated) showed an RP-LC retention time of 596 s.
In the case of `CCCOc1ccc(-c2cn3ccccc3n2)cc1[N+](=O)[O-]`, the RP-LC retention time is reported as 681 s.
Work on `Cc1cc(C2CCCN2C(=O)c2cnn3c(C(F)(F)F)cc(-c4ccco4)nc23)on1` (configuration not stated) yielded an RP-LC retention time of 855 s.
`CC(=O)Nc1ccc(OCC(O)CNC(C)(C)CC(C)(C)C)cc1` (configuration not stated) showed an RP-LC retention time of 562 s.
In the case of `COc1ccc(N2CC(c3nc(-c4ccc(N(C)C)cc4)no3)CC2=O)cc1Cl` (configuration not stated), the RP-LC retention time is reported as 1030 s.
With `COc1ccc(F)cc1S(=O)(=O)NCC1(C)CCOCC1` the RP-LC retention time was 785 s.
Work on `Cc1ccc(CNC(=O)C2(C)Cn3cnc(C(=O)NC4CCCCC4)c3C(=O)N2C2CC2)cc1` (configuration not stated) yielded an RP-LC retention time of 819 s.
Work on `Cc1nn(C)cc1CN(C)C(=O)CC(c1ccccc1)c1ccccc1` yielded an RP-LC retention time of 765 s.
In the case of `CN1C(=O)c2cc(C(=O)NCc3ccccc3Cl)nn2CC1(C)C(=O)NC1CCCCC1` (configuration not stated), the RP-LC retention time is reported as 839 s.
Compound `O=S(=O)(Nc1nc2ccc(S(=O)(=O)N3CCCC3)cc2s1)c1ccc(F)cc1` has an RP-LC retention time of 773 s.
`COc1ccc(NC(=O)Cn2cccc2-c2nc(-c3ccc4c(c3)OCO4)no2)c(OC)c1` gave an RP-LC retention time of 1040 s.
For `CN(C)CCCNC(=O)c1cn(C)nc1S(=O)(=O)N1CCN(c2ccc(Cl)cc2)CC1`, the RP-LC retention time was 684 s.
`Cc1cc(C)cc(C(=O)N2CCN(c3cc(=O)n(C)c(=O)n3C)CC2)c1` gave an RP-LC retention time of 691 s.
Compound `COc1cccc(S(=O)(=O)N2CCC([C@H]3[C@@H](OC)C(=O)N3C(C)C)CC2)c1` has an RP-LC retention time of 868 s.
`COc1ccc(-c2cc(C(=O)Nc3cc(C)cc(C)c3)nn2C2CCS(=O)(=O)C2)cc1` (configuration not stated) gave an RP-LC retention time of 741 s.
In the case of `O=C(Cn1nc(N2CCOCC2)c2ccccc2c1=O)Nc1ccc(F)cc1`, the RP-LC retention time is reported as 839 s.
For `COc1ccc(S(=O)(=O)Nc2cc(N3CCCS3(=O)=O)ccc2OC)cc1F`, the RP-LC retention time was 721 s.
With `O=c1cc(CSc2nnc(-c3ccc4c(c3)OCO4)o2)nc2sccn12` the RP-LC retention time was 727 s.
For `CNC(=O)c1cc(C(=O)c2ccc3nc(Nc4cccc(C(F)(F)F)c4)[nH]c3c2)ccn1`, the RP-LC retention time was 747 s.
`Cc1nnc(N2CCCC(C(=O)N3CCN(c4ccccc4)CC3)C2)c2nn(-c3ccccc3)c(C)c12` (configuration not stated) showed an RP-LC retention time of 759 s.
In the case of `CCOc1ccc(-n2c(N3CCN(CC)CC3)nc3cc(C(=O)OC)ccc3c2=O)cc1`, the RP-LC retention time is reported as 683 s.
Compound `CS(=O)(=O)Nc1ccc(-c2noc(CNC(=O)c3ccccc3)n2)cc1` has an RP-LC retention time of 704 s.
For `COC(=O)CC1=CC(SCC(=O)N2CCC(C)CC2)=Nc2ccccc2N1`, the RP-LC retention time was 1000 s.
With `CNC(=O)c1cccc(Nc2c(-c3ccc(Cl)cc3)nc3cnccn23)c1` the RP-LC retention time was 692 s.
In the case of `O=C(CSCc1ccccc1)N1CCC(Cn2cccn2)CC1`, the RP-LC retention time is reported as 721 s.
